The text below walks through data of patent US9376418B2, “Substituted pyridine spleen tyrosine kinase (SYK) inhibitors” (Merck Sharp & Dohme Corp., priority 2012, dated 2016).

For the first assay, the target named is T1, recombinant human GST-SYK (Homo sapiens, UniProt P43405).
T1 construct: purchased Carna Biosciences 08-176
As to the kind of experiment: Homogeneous Time-Resolved Fluorescence (HTRF) assay for the recombinant human Syk enzyme. As to conditions: HTRF assay, recombinant human GST-SYK; IC50 given as class symbols; read-out: rhSYK Activity. Format: biochemical. Put shortly:
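GST-hSYK ([…]) was preincubated with inhibitor (0.1% DMSO final) for 10 minutes at room temperature in 15 mM Tris-HCl pH 7.5, 0.01% tween 20, 2 mM DTT. Biotinylated peptide (250 nM), 5 mM magnesium and 25 μM ATP started a 45-minute room-temperature reaction, read by time-resolved fluorescence.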
(In TR-FRET formats the signal depends on donor and acceptor labels being close together.)
`Cc1cc(Nc2nccc(C(F)(F)F)n2)cc(-c2ccnc(CCC(=O)O)c2)c1` [Example 2.133, 3-[4-(3-methyl-5-{[4-(trifluoromethyl)pyrimidin-2-yl]amino}phenyl)pyridin-2-yl]propanoic acid]: the IC50 is less than 0.1 µM.

Take `CCOC(=O)CCc1cc(-c2cc(C)cc(Nc3nccc(C)n3)c2)ccn1` [Example 2.134, ethyl 3-(4-{3-methyl-5-[(4-methylpyrimidin-2-yl)amino]phenyl}pyridin-2-yl)propanoate]: the IC50 is 0.1 to 1 µM.

Consider `Cc1cc(Nc2nccc(C)n2)cc(-c2ccnc(CCC(=O)O)c2)c1` [Example 2.135, 3-(4-{3-methyl-5-[(4-methylpyrimidin-2-yl)amino]phenyl}pyridin-2-yl)propanoic acid], for which the IC50 was less than 0.1 µM. On to `CCOC(=O)CCc1cc(-c2cc(C)cc(Nc3nccc(C4CC4)n3)c2)ccn1` [Example 2.136, ethyl 3-(4-{3-[(4-cyclopropylpyrimidin-2-yl)amino]-5-methylphenyl}pyridin-2-yl)propanoate], for which the IC50 fell in the range of 0.1 to 1 µM. Same read-out and setting: for `Cc1cc(Nc2nccc(C3CC3)n2)cc(-c2ccnc(CCC(=O)O)c2)c1` [Example 2.137, 3-(4-{3-[(4-cyclopropylpyimidin-2-yl)amino]-5-methylphenyl}pyridin-2-yl)propanoic acid] the value was less than 0.1 µM; for `Cc1cc(Nc2nccc(C(F)(F)F)n2)cc(-c2ccc(C(C)O)nc2)c1` (stereo not shown) [Example 2.138, 1-[5-(3-Methyl-5-{[4-(trifluoromethyl)pyrimidin-2-yl]amino}phenyl)pyridin-2-yl]ethanol], less than 0.1 µM; for `Cc1cc(Nc2nccc(C(F)(F)F)n2)cc(-c2ccc(CC(=O)O)nc2)c1` [Example 3.1, 2-(5-(3-methyl-5-((4-(trifluoromethyl)pyrimidin-2-yl)amino)phenyl)pyridin-2-yl)acetic acid], less than 0.1 µM.

With `Cc1cc(Nc2nccc(C(F)(F)F)n2)cc(-c2ccc(CC(=O)N(C)C)nc2)c1` [Example 3.2, N,N-dimethyl-2-(5-(3-methyl-5-((4-(trifluoromethyl)pyrimidin-2-yl)amino)phenyl)pyridin-2-yl)acetamide], the IC50 is less than 0.1 µM. Regarding `COc1ccnc(Nc2cc(C)cc(-c3ccnc(N)c3)c2)n1` [Example 4.1, N-[3-(2-aminopyridin-4-yl)-5-methylphenyl]-4-methoxypyrimidin-2-amine], the IC50 is less than 0.1 µM. As to `Cc1cc(Nc2nccc(C(F)(F)F)n2)cc(-c2ccc(N)nc2)c1` [Example 4.2, N-[3-(6-aminopyridin-3-yl)-5-methylphenyl]-4-(trifluoromethyl)pyrimidin-2-amine], the IC50 was less than 0.1 µM.

As for `Cc1cc(Nc2nccc(C(F)(F)F)n2)cc(-c2cncc(F)c2)c1` [Example 4.3, N-[3-(5-fluoropyridin-3-yl)-5-methylphenyl]-4-(trifluoromethyl)pyrimidin-2-amine], the IC50 was less than 0.1 µM. For `Cc1cc(Nc2nccc(C(F)(F)F)n2)cc(-c2ccc(F)nc2)c1` [Example 4.4, N-[3-(6-fluoropyridin-3-yl)-5-methylphenyl]-4-(trifluoromethyl)pyrimidin-2-amine], the IC50 lay within 0.1 to 1 µM. As to `COc1ccc(-c2cc(C)cc(Nc3nccc(C(F)(F)F)n3)c2)cn1` [Example 4.5, N-[3-(6-methoxypyridin-3-yl)-5-methylphenyl]-4-(trifluoromethyl)pyrimidin-2-amine], the IC50 is 0.1 to 1 µM. Consider `Cc1cc(Nc2nccc(C(F)(F)F)n2)cc(-c2ccc(C(F)(F)F)nc2)c1` [Example 4.6, N-{3-methyl-5-[6-(trifluoromethyl)pyridin-3-yl]phenyl}-4-(trifluoromethyl)pyrimidin-2-amine], for which the IC50 is 0.1 to 1 µM.

For `Cc1cc(Nc2nccc(C(F)(F)F)n2)cc(-c2ccc(CO)nc2)c1` [Example 4.7, [5-(3-methyl-5-{[4-(trifluoromethyl)pyrimidin-2-yl]amino}phenyl)pyridin-2-yl]methanol], the IC50 was less than 0.1 µM. For `Cc1cc(Nc2nccc(C(F)(F)F)n2)cc(-c2ccc(O)nc2)c1` [Example 4.8, 5-(3-methyl-5-{[4-(trifluoromethyl)pyrimidin-2-yl]amino}phenyl)pyridin-2-ol], the IC50 was 0.1 to 1 µM. Turning to `COc1cccc(-c2cc(C)cc(Nc3nccc(C(F)(F)F)n3)c2)n1` [Example 4.9], the IC50 fell in the range of 0.1 to 1 µM. Same read-out and setting: for `COc1cc(-c2cc(C)cc(Nc3nccc(C(F)(F)F)n3)c2)ccn1` [Example 4.10] the value was 0.1 to 1 µM; for `Cn1cc(-c2cccc(Nc3nccc(C(F)(F)F)n3)c2)ccc1=O` [Example 5.1, 1-Methyl-5-(3-{[4-(trifluoromethyl)pyrimidin-2-yl]amino}phenyl)pyridin-2(1H)-one], 0.1 to 1 µM; for `Cn1ccc(-c2cccc(Nc3nccc(C(F)(F)F)n3)c2)cc1=O` [Example 5.2, 1-methyl-4-(3-{[4-(trifluoromethyl)pyrimidin-2-yl]amino}phenyl)pyridin-2(1H)-one], 0.1 to 1 µM. As for `Cn1c(-c2cccc(Nc3nccc(C(F)(F)F)n3)c2)cccc1=O` [Example 5.3, 1-methyl-6-(3-{[4-(trifluoromethyl)pyrimidin-2-yl]amino}phenyl)pyridin-2(1H)-one], the IC50 is 0.1 to 1 µM. Same read-out and setting: the value for `CNC(=O)Nc1cc(Nc2nccc(C(F)(F)F)n2)cc(-c2cccnc2)c1` [Example 6.1, 1-Methyl-3-[3-(pyridin-3-yl)-5-{[4-(trifluoromethyl)pyrimidin-2-yl]amino}phenyl]urea] was less than 0.1 µM; that for `CCNC(=O)Nc1cc(Nc2nccc(C(F)(F)F)n2)cc(-c2cccnc2)c1` [Example 6.3, 1-ethyl-3-(3-pyridin-3-yl-5-{[4-(trifluoromethyl)pyrimidin-2-yl]amino}phenyl)urea] was less than 0.1 µM.

As for `Nc1cc(Nc2nccc(C(F)(F)F)n2)cc(-c2ccncc2)c1` [Example 6.4, 5-pyridin-4-yl-N-[4-(trifluoromethyl)pyrimidin-2-yl]benzene-1,3-diamine], the IC50 was less than 0.1 µM. As to `CC(=O)Nc1cc(Nc2nccc(C(F)(F)F)n2)cc(-c2ccncc2)c1` [Example 6.5, N-(3-pyridin-4-yl-5-{[4-(trifluoromethyl)pyrimidin-2-yl]amino}phenyl)acetamide], the IC50 is less than 0.1 µM. Regarding `CCNC(=O)Nc1cc(Nc2nccc(C(F)(F)F)n2)cc(-c2ccc(C(=O)O)nc2)c1` [Example 6.6, 5-(3-[(ethylcarbamoyl)amino]-5-{[4-(trifluoromethyl)pyrimidin-2-yl]amino}phenyl)pyridine-2-carboxylic acid], the IC50 is less than 0.1 µM. On to `CC(=O)Nc1cc(Nc2nccc(C(F)(F)F)n2)cc(-c2ccc(NC(C)(C)C(=O)O)nc2)c1` [Example 7.1, N-{5-[3-(acetylamino)-5-{[4-(trifluoromethyl)pyrimidin-2-yl]amino}phenyl]pyridin-2-yl}-2-methylalanine], for which the IC50 is less than 0.1 µM. `CC(=O)Nc1cc(Nc2nccc(C(F)(F)F)n2)cc(-c2ccc(N3CC[C@H]3C(=O)O)nc2)c1` [Example 7.2, (2S)-1-{5-[3-(acetylamino)-5-{[4-(trifluoromethyl)pyrimidin-2-yl]amino}phenyl]pyridin-2-yl}azetidine-2-carboxylic acid]: the IC50 was less than 0.1 µM. `CC(=O)Nc1cc(Nc2nccc(C(F)(F)F)n2)cc(-c2ccc(NC3CCNC3=O)nc2)c1` (stereo not shown) [Example 7.3, N-(3-{6-[(2-oxopyrrolidin-3-yl)amino]pyridin-3-yl}-5-{[4-(trifluoromethyl)pyrimidin-2-yl]amino}phenyl)acetamide]: the IC50 was less than 0.1 µM. Regarding `CC(=O)Nc1cc(Nc2nccc(C(F)(F)F)n2)cc(-c2ccc(N3CCNC(=O)CC3)nc2)c1` [Example 7.4, N-(3-[6-(5-oxo-1,4-diazepan-1-yl)pyridin-3-yl]-5-{[4-(trifluoromethyl)pyrimidin-2-yl]amino}phenyl)acetamide], the IC50 is less than 0.1 µM.

Take `CC(=O)Nc1cc(Nc2nccc(C(F)(F)F)n2)cc(-c2ccc(N3CCNC(=O)C3)nc2)c1` [Example 7.5, N-(3-[6-(3-oxopiperazin-1-yl)pyridin-3-yl]-5-{[4-(trifluoromethyl)pyrimidin-2-yl]amino}phenyl)acetamide]: the IC50 was less than 0.1 µM. In the case of `Cc1cc(Nc2nccc(C(F)(F)F)n2)cc(-c2ccc(N3CC[C@H]3C(=O)O)nc2)c1` [Example 7.6, (2S)-1-[5-(3-methyl-5-{[4-(trifluoromethyl)pyrimidin-2-yl]amino}phenyl)pyridin-2-yl]azetidine-2-carboxylic acid], the IC50 was less than 0.1 µM.

Take `Cc1cc(Nc2nccc(C(F)(F)F)n2)cc(-c2ccc(NC(C)(C)C(=O)O)nc2)c1` [Example 7.7, 2-methyl-N-[5-(3-methyl-5-{[4-(trifluoromethyl)pyrimidin-2-yl]amino}phenyl)pyridin-2-yl]alanine]: the IC50 was less than 0.1 µM. On the same count and under the same terms, for `Cc1cc(Nc2nccc(C(F)(F)F)n2)cc(-c2ccc(N3CCCC4(CCCNC4=O)C3)nc2)c1` (stereo not shown) [Example 7.9, 8-[5-(3-methyl-5-{[4-(trifluoromethyl)pyrimidin-2-yl]amino}phenyl)pyridin-2-yl]-2,8-diazaspiro[5.5]undecan-1-one] the value was 0.1 to 1 µM; for `Cc1cc(Nc2nccc(C(F)(F)F)n2)cc(-c2ccc(N3CCC4(CCCCN4)CC3)nc2)c1` [Example 7.10, N-{3-[6-(1,9-diazaspiro[5.5]undec-9-yl)pyridin-3-yl]-5-methylphenyl}-4-(trifluoromethyl)pyrimidin-2-amine], 0.1 to 1 µM. Regarding `Cc1cc(Nc2nccc(C(F)(F)F)n2)cc(-c2ccc(N3CCCC4(CCCO4)C3)nc2)c1` (stereo not shown) [Example 7.11, N-{3-methyl-5-[6-(1-oxa-7-azaspiro[4.5]dec-7-yl)pyridin-3-yl]phenyl}-4-(trifluoromethyl)pyrimidin-2-amine], the IC50 fell in the range of 0.1 to 1 µM.

The same assay, now with this note: recombinant GST-hSYK, 25 μM ATP, HTRF; read-out: IC50 (inhibition of human Syk activity).
Consider `CC(=O)Nc1cc(Nc2nccc(C(F)(F)F)n2)cc(-c2ccc(NC(C)(C)C(=O)O)nc2)c1` [Example 7.1, N-{5-[3-(acetylamino)-5-{[4-(trifluoromethyl)pyrimidin-2-yl]amino}phenyl]pyridin-2-yl}-2-methylalanine], for which the IC50 stood at 0.0039 µM.
